Measured values: patent publication US7156881B2, “Counteracting bioprosthetic calcification” (The Children's Hospital of Philadelphia, priority 2002, dated 2007)
Marks after values point to notes of the source that are not given here.

What was measured:
[1] = Kinetics of epoxy-ring opening with different nucleophiles (t-butyl glycidyl ether in water); format: physicochemical; details: for reactivity relative to nucleophiles without a sulfur atom: 20° C. and pH of about 7; for Reacted substrate / k · 10^3: 20° C., pH ca. 7
Description: Pursuant to the present invention, the functional groups need to cleave an epoxy ring, and nucleophilic groups are illustrative in this respect.

[2] = Kinetics of epoxy-ring opening with different nucleophiles (triglicidyl amine in water); format: physicochemical; details: 20° C.; for K * 10^3 / Reacted substrate: pH ca. 7; for rate of reaction with TGA-epoxy (k): pH 7.4, 20 mM of MABP
Description: The bioprosthetic materials treated by both MABP and TGA show a significant improvement in anti-calcification ability. Consequently, it is believed that the MABP has successfully met the above-mentioned criteria, i.e., the reactive functional group is active enough to dominate the co-attachment reaction between MABP and TGA, and to cause MABP to attach to a TGA epoxide more completely.

[3] = system: porcine aortic valve cusps; assay: 21-day rat subdermal implants, Ca content by atomic absorption: cusp; format: in vivo, Sprague-Dawley rats; details: Cusp implanted
Description: (§1) A series of bioprosthetic material samples were prepared, in order to compare the anti-calcification efficacy of TGA-MABP with TGA crosslinking alone. The material used were porcine aortic valve cusps, porcine aortic wall, and bovine pericardium. These materials were obtained fresh at slaughter and transported to the laboratory on ice.

[4] = Rat weight in 21-day subdermal implant study; details: 21-day rat subdermal implants
Description: All materials were rinsed thoroughly with normal saline, and 1 cm^2 pieces of aortic wall, pericardium, or individual cusp leaflets crosslinked with 100 mM TGA with the inclusion of 20 mM MABP, as described above with daily replacement of solutions for 7 days. After thorough rinse with normal saline, biomaterials were surgically implanted in dorsal subdermal pouches of 75–80 g male Sprague-Dawley rats as previously described. Animals were sacrificed after 21 days, implants recovered, rinsed, dried, and analyzed for Ca content by atomic absorption spectroscopy (AA).

[5] = TGA cross-linking of bovine pericardium, shrink temperature (Ts) by DSC; format: physicochemical; details: for shrink temperature (Ts): 100 mM TGA, borate mannitol buffer pH 7.4, room temperature
Description: Bovine pericardium was obtained fresh at slaughter and transported to the lab on ice. After extensive rinsing with normal saline, the tissue was cut into 1 cm squares and segregated into 5 groups for crosslinking as described below. Reactions were carried out at room temperature on a rocker platform for 7 days with daily replacement of each solution with one freshly prepared in borate mannitol buffer (9.33 g/l sodium tetraborate, −˜2 g mannitol to pH 7.4). Pericardial samples were removed from the reaction vessels daily, rinsed and stored individually at 4° C. in normal saline for shrink temperature determination (Ts) by Differential Scanning […] (DSC) analysis at the end of the experiment.
MABP stock solution was prepared daily by adding water, neutralizing with NaHCO3, and diluting to one of the three desired concentrations (2 mM, 20 mM, 100 mM) in boratemannitol buffer. TGA then was added to each solution to a final concentration of 100 mM TGA. Two additional groups were treated solely with 100 mM TGA in the same buffer for 7 days, and one of these treated again on day 8 with 100 mM MABP in buffer.
Further experiments were done testing the anti-calcification potential of MABP co-attachment utilized the maximum non-interfering condition tested: 20 mM MABP and 100 mM TGA in borate-mannitol buffer, pH 7.4. Those experimental data are shown in Table III and graphically in FIG. 1.

porcine aortic wall = assay: 21-day rat subdermal implants, Ca content by atomic absorption: aortic wall; format: in vivo, Sprague-Dawley rats; details: Aortic wall implanted
Description: as §1

bovine pericardium = assay: 21-day rat subdermal implants, Ca content by atomic absorption: pericardium; format: in vivo, Sprague-Dawley rats; details: Pericardium implanted
Description: as §1

[6] = system: aortic wall segment of a bioprosthetic implant; details: TGA-crosslinking methodology, related art; cited from earlier work
[7] = system: bovine pericardial calcification; details: TGA-crosslinking methodology, related art; cited from earlier work
[8] = substrate 0.1 M, epoxide 0.3 M, time of reaction 3 h
[9] = substrate 0.1 M, epoxide 0.3 M, time of reaction 19 h
[10] = substrate 0.2 M, epoxide 0.1 M, time of reaction 1 h
[11] = substrate 0.4 M, epoxide 0.3 M, time of reaction 120 h
[12] = substrate 0.1 M, epoxide 0.3 M, time of reaction 48 h
[13] = substrate 0.2 M, epoxide 0.06 M, time of reaction 1.75 h
[14] = substrate 0.2 M, epoxide 0.1 M, time of reaction 2 h
[15] = substrate 0.1 M, epoxide 0.3 M, time of reaction 120 h
[16] = substrate 0.1 M, epoxide 0.3 M, time of reaction 5 min
[17] = substrate 0.1 M, epoxide 0.3 M, time of reaction 15 min

Molecule: CSCCC(NC(C)=O)C(=O)O (racemic) [N-Acetyl-DL-methionine]
- reactivity relative to nucleophiles without a sulfur atom [1]: at least twenty times more reactive
- Reacted substrate [1, 8]: 33%
- k · 10^3 [1, 8]: 473 l/mol · h
- Reacted substrate [1, 9]: 89%
- k · 10^3 [1, 9]: 488 l/mol · h

Molecule: N[C@@H](CS)C(=O)O [Cysteine]
- reactivity relative to nucleophiles without a sulfur atom [1]: at least twenty times more reactive
- Reacted substrate [1, 10]: 13%
- k · 10^3 [1, 10]: 1618 l/mol · h
- K * 10^3 [2, 10]: 1618 1/mol * h
- Reacted substrate [2, 10]: 13%

Molecule: O=CCCCC=O [Glutaraldehyde]
- Ca ([3]; 21-day rat subdermal implants): 89.03 +/− 5.59* μg/mg dry wt.
- Rat weight ([4]; Cusp implanted): 268.8 ± 6.5 g

Molecule: CC(O)(P(=O)(O)O)P(=O)(O)O [HEDP]
- Reacted substrate [1, 11]: 5.5%
- k · 10^3 [1, 11]: 1.6 l/mol · h

Molecule: c1c[nH]cn1 [Imidazole]
- Reacted substrate [1, 12]: 28%
- k · 10^3 [1, 12]: 24 l/mol · h

Molecule: O=P(O)(O)C(CNCCS)P(=O)(O)O [MABP, 2-(2-mercaptoethylamino)-ethylidene-1,1-bisphosphonate]
- rate of reaction with TGA-epoxy (k) [2]: 1.2 mol⁻¹ h⁻¹
- K * 10^3 [2, 13]: 1120 1/mol * h
- Reacted substrate [2, 13]: 10%
- interference of MABP with the TGA crosslinking process (DSC) ([5]; equimolar concentration of MABP and TGA (100 mM each) versus the other conditions): grossly slowed the crosslinking process
- effects on rat weight gain ([4]; inclusion of MABP): no significant effects

Molecule: O=P(O)(O)C(CS)P(=O)(O)O [MEBP, 2-mercaptoethlidene-1,1-bisphosphonate]
- rate of reaction with TGA-epoxy (k) [2]: 0.035 mol⁻¹ h⁻¹
- K * 10^3 [2, 14]: 35 1/mol * h
- Reacted substrate [2, 14]: 0.7%

Molecule: CC(=O)N[C@@H](Cc1c[nH]cn1)C(=O)O [N-Acetyl-L-histidine]
- Reacted substrate [1, 15]: 60%
- k · 10^3 [1, 15]: 29 l/mol · h

Molecule: C1OC1CN(CC1CO1)CC1CO1 (centres unmarked) [TGA, triglycidyl amine]
- shrink temperature (Ts) ([5]; Day 1 of crosslinking): 72.6 +/− 1.0
- shrink temperature (Ts) ([5]; Day 2 of crosslinking): 77.4 +/− 0.5
- shrink temperature (Ts) ([5]; Day 3 of crosslinking): 78.2 +/− 0.3
- shrink temperature (Ts) ([5]; Day 4 of crosslinking): 79.6 +/− 0.4
- shrink temperature (Ts) ([5]; Day 6 of crosslinking): 80.2 +/− 0.3
- shrink temperature (Ts) ([5]; Day 7 of crosslinking): 81.0 +/− 0.6
- Ca (porcine aortic wall): 7.73 +/− 0.90 μg/mg dry wt.
- Ca (bovine pericardium): 11.23 +/− 4.74 μg/mg dry wt.
- Ca ([3]; rat subdermal implants, prev. exp.): 2.07 +/− 0.31 μg/mg dry wt.
- inhibition of calcification of the aortic wall segment [6]: relatively ineffective
- inhibiting bovine pericardial calcification [7]: less effective
- Rat weight ([4]; Aortic wall implanted): 247.8 ± 7.9 g
- Rat weight ([4]; Pericardium implanted): 268.2 ± 9.9 g

Molecule: O=S(O)(O)=S [Thiosulfate]
- reactivity relative to nucleophiles without a sulfur atom [1]: at least twenty times more reactive
- Reacted substrate [1, 16]: 30%
- k · 10^3 [1, 16]: 23 000 l/mol · h
- Reacted substrate [1, 17]: 52%
- k · 10^3 [1, 17]: 17 000 l/mol · h
- K * 10^3 [2, 16]: 23000 1/mol * h
- Reacted substrate [2, 16]: 30%
- K * 10^3 [2, 17]: 17000 1/mol * h
- Reacted substrate [2, 17]: 52%

Molecule: Phosphate
- Reacted substrate [1, 11]: 12%
- k · 10^3 [1, 11]: 3.9 l/mol · h
